“And” between values parts separate entries of the source, which are not always exact repeats. Identical values can stand only once. Like-named read-outs stand apart in the source and are kept apart here.
Experiments:
delta opioid receptor = molecular target: T1, delta opioid receptor (Rattus norvegicus, UniProt P33533); test: Rat brain delta opioid receptor binding assay; details: rDOR (Ki, nM): Rat delta opioid receptor binding constant, rat forebrain membranes; [3H]DPDPE or [3H]naltrindole, 25° C., 2.5 h
T1 construct: the forebrains were homogenized in Tris buffer in a Teflon®-glass homogenizer; from tissue; host or cells: forebrain of male Wistar rats (particulate membrane preparation)
T1 sequence (P33533 whole entry): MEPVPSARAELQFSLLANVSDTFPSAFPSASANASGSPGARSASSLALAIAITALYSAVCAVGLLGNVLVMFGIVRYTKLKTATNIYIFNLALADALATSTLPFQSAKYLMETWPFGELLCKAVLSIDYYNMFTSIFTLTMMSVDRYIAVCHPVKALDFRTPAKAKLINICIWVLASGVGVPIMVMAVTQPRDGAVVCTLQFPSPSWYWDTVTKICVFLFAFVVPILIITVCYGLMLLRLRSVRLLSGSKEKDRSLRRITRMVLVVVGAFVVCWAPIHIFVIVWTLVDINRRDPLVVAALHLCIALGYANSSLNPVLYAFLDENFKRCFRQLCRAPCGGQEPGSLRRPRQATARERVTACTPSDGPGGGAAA
Protocol: Rat Brain Delta Opioid Receptor Binding Assay
(§1) Procedure: Male, Wistar rats (150-250 g, VAF, Charles River, Kingston, N.Y.) were killed by CO2, and their brains removed and placed immediately in ice cold Tris HCl buffer (50 mM, pH 7.4). The forebrains were separated from the remainder of the brain by a coronal transection, beginning dorsally at the colliculi and passing ventrally through the midbrain-pontine junction. After dissection, the forebrains were homogenized in Tris buffer in a Teflon®-glass homogenizer. The homogenate was diluted to a concentration of 1 g of forebrain tissue per 80 mL Tris and centrifuged at 39,000×g for 10 min. The pellet was resuspended in the same volume of Tris buffer containing 5 mM MgCl2 with several brief pulses from a Polytron homogenizer. This particulate preparation was used for the delta opioid binding assays.
(§2) Analysis: The data from the scintillation counter were used to calculate either the % inhibition compared to control binding (when only a single concentration of test compound was evaluated) or a Ki value (when a range of concentrations was tested). Percent inhibition was calculated as: [(total dpm−test compound dpm)/(total dpm−nonspecific dpm)]*100. Kd and Ki values were calculated using GraphPad PRISM data analysis program.

mu opioid receptor = molecular target: T2, mu opioid receptor (Rattus norvegicus, UniProt P33535); test: Rat brain mu opioid receptor binding assay; details: rMOR (Ki, nM): Rat mu opioid receptor binding constant, rat forebrain membranes; [3H]DAMGO, 25° C., 2.5 h
T2 construct: the forebrains were homogenized in Tris buffer in a Teflon®-glass homogenizer; from tissue; host or cells: forebrain of male Wistar rats (particulate membrane preparation)
T2 sequence (P33535 whole entry): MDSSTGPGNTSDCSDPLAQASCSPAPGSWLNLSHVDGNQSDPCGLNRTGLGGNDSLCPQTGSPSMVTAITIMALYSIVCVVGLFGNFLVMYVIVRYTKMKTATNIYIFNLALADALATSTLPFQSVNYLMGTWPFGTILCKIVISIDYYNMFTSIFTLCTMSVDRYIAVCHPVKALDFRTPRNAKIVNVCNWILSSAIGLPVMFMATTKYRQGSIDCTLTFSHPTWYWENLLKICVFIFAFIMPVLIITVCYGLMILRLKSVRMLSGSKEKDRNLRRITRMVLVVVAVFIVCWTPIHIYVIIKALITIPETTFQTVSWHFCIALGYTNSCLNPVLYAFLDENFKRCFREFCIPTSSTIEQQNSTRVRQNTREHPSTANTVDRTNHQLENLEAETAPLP
Protocol: Rat Brain Mu Opioid Receptor Binding Assay
as §1
as §2, with “concentrations” for “concentrations was”

[1] = molecular target: T3, delta opioid receptor (NG108-15 cell membranes) (Mus musculus, UniProt P32300); test: [35S]GTPγS binding assay in NG108-15 cell membranes (delta opioid); assay type: biochemical; details: for delta GTPγS binding Rel Eff: value in parentheses
T3 construct: NG108-15 cell membranes were purchased from Applied Cell Sciences (Rockville, Md.); host or cells: NG108-15 cell membranes (purchased)
T3 sequence (P32300 whole entry): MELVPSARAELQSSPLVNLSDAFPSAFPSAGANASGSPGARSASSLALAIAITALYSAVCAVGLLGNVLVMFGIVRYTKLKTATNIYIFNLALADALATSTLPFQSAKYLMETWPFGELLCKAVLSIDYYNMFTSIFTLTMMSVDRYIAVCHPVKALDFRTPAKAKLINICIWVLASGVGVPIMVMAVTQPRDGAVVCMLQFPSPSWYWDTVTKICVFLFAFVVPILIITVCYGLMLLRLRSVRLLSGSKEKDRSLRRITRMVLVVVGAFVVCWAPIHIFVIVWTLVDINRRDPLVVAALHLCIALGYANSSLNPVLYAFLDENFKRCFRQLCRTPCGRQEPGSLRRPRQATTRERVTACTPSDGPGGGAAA
Protocol: Functional Assay: [^35S]GTPγS Binding Assay in NG108-15 Cell Membranes (Delta Opioid)
Methods: NG108-15 cell membranes were purchased from Applied Cell Sciences (Rockville, Md.). A sample (8 mg/mL) of membrane protein suspended in 10 mM TRIS-HCl pH 7.2, 2 mM EDTA, 10% sucrose. Membranes were maintained at 4-8° C. A 1 mL volume of membranes was added into 10 mL cold binding assay buffer. The assay buffer contained 50 mM Tris, pH 7.6, 5 mM MgCl2, 100 mM NaCl, 1 mM DTT and 1 mM EGTA. The membrane suspension was homogenized twice with a Polytron, and centrifuged at 3000 rpm for 10 min. The supernatant was then centrifuged at 18,000 rpm for 20 min. Ten mL assay buffer was added into the pellet containing tube. The pellet and buffer were mixed with a Polytron.
Incubation procedure: The pellet membranes (75 μg/mL) were preincubated with SPA (10 mg/mL) at 25° C. for 45 min in the assay buffer. The SPA (5 mg/mL) coupled with membranes (37.5 μg/mL) was then incubated with 0.1 nM [^35S]GTPγS in the same Tris buffer containing 100 μM GDP in total volume of 200 μL. Increasing concentrations of receptor agonists were used to stimulate [^35S]-GTPγS binding. The basal binding was tested in the absence of agonists and non-specific binding was tested in the presence of 10 μM unlabeled GTPγS. The data were analyzed on a Packard Top Count.
% of Basal=(stimulated−non specific)*100/(basal−non specific).
(§3) EC50 values were calculated using GraphPad Prism.

[2] = molecular target: T4, hMOR (CHO-hMOR cell membranes) (Homo sapiens, UniProt P35372); test: [35S]GTPγS binding assay in CHO-hMOR cell membranes; assay type: biochemical; details: for mu GTPγS binding Rel Eff: value in parentheses
T4 construct: host or cells: CHO cells expressing hMOR (purchased membranes)
T4 sequence (P35372 whole entry): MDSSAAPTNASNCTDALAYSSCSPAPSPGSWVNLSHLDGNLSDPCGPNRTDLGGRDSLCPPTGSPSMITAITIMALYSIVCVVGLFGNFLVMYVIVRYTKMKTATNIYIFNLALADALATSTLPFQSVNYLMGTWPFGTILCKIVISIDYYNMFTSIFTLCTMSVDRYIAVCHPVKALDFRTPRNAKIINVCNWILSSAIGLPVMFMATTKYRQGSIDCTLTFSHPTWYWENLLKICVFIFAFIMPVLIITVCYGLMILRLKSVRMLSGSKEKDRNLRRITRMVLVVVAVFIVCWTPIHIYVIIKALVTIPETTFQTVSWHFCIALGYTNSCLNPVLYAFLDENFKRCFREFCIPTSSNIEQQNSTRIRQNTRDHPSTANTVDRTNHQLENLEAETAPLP
Protocol: Functional Assay: [^35S]GTPγS Binding Assays in CHO-hMOR Cell Membranes
Methods: CHO-hMOR cell membranes were purchased from Receptor Biology, Inc. (Baltimore, Md.). About 10 mg/mL of membrane protein was suspended in 10 mM TRIS-HCl pH 7.2, 2 mM EDTA, 10% sucrose, and the suspension kept on ice. A 1 mL volume of membranes was added to 15 mL cold binding assay buffer containing 50 mM HEPES, pH 7.6, 5 mM MgCl2, 100 mM NaCl, 1 mM DTT and 1 mM EDTA. The membrane suspension was homogenized with a Polytron and centrifuged at 3,000 rpm for 10 min. The supernatant was then centrifuged at 18,000 rpm for 20 min. The pellet was resuspended in 10 mL assay buffer with a Polytron. The membranes were preincubated with wheat germ agglutinin coated SPA beads (Amersham) at 25° C. for 45 min in the assay buffer. The SPA bead (5 mg/mL) coupled membranes (10 μg/mL) were then incubated with 0.5 nM [^35S]GTPγS in the assay buffer. […] A range of concentrations of receptor agonist was used to stimulate [^35S]GTPγS binding. Both basal and non-specific binding was tested in the absence of agonist; non-specific binding determination included 10 μM unlabeled GTPγS.
Compounds were tested for function as antagonists by evaluating their potential to inhibit agonist-stimulated GTPγS binding. Radioactivity was quantified on a Packard TopCount. The following parameters were calculated:
as §3

[3] = read-out: delta GTPγS binding EC50

| SMILES | Ki (delta opioid receptor) | Ki (mu opioid receptor) | EC50 ([1]; delta GTPγS binding EC50 (nM)) [nM] | delta GTPγS binding Rel Eff [1] | EC50 [2] [nM] | mu GTPγS binding Rel Eff ([2]; CHO-hMOR cell membranes) | EC50 [1, 3] [nM] | EC50 ([2]; CHO-hMOR cell membranes, read-out: mu GTPγS binding EC50) [nM] |
| --- | --- | --- | --- | --- | --- | --- | --- | --- |
| Oc1cccc2c1Oc1ccccc1C2=C1CC2CCC(C1)N2 (racemic) [Cpd 2, 9-(8-Aza-bicyclo[3.2.1]oct-3-ylidene)-9H-xanthen-4-ol] | 0.48 nM | 7 nM | 50.9 | 0.67 | 382 | 0.37 | – | – |
| Oc1cccc2c1Oc1ccccc1C2=C1CC2CCC(C1)N2 (single isomer, unassigned) [Cpd 8, 9-(8-Azabicyclo[3.2.1]oct-3-ylidene)-9H-xanthen-4-ol] | 0.56 nM | 3.5 nM | 9.98 | – | 902 | – | – | – |
| NC(=O)c1cccc2c1Oc1ccccc1C2=C1CC2CCC(C1)N2 (single isomer, unassigned) [Cpd 37, 9-(8-Azabicyclo[3.2.1]oct-3-ylidene)-9H-xanthene-4-carboxylic acid amide] | 4 nM | 29 nM | 156 | – | 878 | – | – | – |
| Oc1cccc2c1Oc1ccccc1C2=C1CC2CCC(C1)N2Cc1ccccc1 (single isomer, unassigned) [Cpd 45, 9-(8-Benzyl-8-azabicyclo[3.2.1]oct-3-ylidene)-9H-xanthen-4-ol] | 9.62 nM | 11.4 nM | 1420 | – | – | – | – | – |
| Oc1cccc2c1Oc1ccccc1C2=C1CC2CCC(C1)N2Cc1ccccc1 (single isomer, unassigned) [Cpd 46, 9-(8-Benzyl-8-azabicyclo[3.2.1]oct-3-ylidene)-9H-xanthen-4-ol] | 0.03 nM | 0.19 nM | – | – | – | – | 10.2 | – |
| O=C(Nc1ccccc1)c1cccc2c1Oc1ccccc1C2=C1CC2CCC(C1)N2 (single isomer, unassigned) [Cpd 48, 9-(8-Azabicyclo[3.2.1]oct-3-ylidene)-9H-xanthene-4-carboxylic acid phenylamide] | 3.71 nM | 3.58 nM | – | – | – | – | 101 | – |
| Oc1cccc2c1Oc1ccccc1C2=C1CC2CCC(C1)N2Cc1cccnc1 (single isomer, unassigned) [Cpd 50, 9-(8-Pyridin-3-ylmethyl-8-azabicyclo[3.2.1]oct-3-ylidene)-9H-xanthen-4-ol] | 0.08 nM | 0.68 nM | – | – | – | – | 218 | – |
| CN1C2CCC1CC(=C1c3ccccc3Oc3c(O)cccc31)C2 (single isomer, unassigned) [Cpd 51, 9-(8-Methyl-8-azabicyclo[3.2.1]oct-3-ylidene)-9H-xanthen-4-ol] | 11.2 nM | 138 nM | 59.2 | – | – | – | – | – |
| O=C(NCCc1ccccc1)c1cccc2c1Oc1ccccc1C2=C1CC2CCC(C1)N2 (single isomer, unassigned) [Cpd 56, 9-(8-Azabicyclo[3.2.1]oct-3-ylidene)-9H-xanthene-4-carboxylic acid phenethylamide] | 49.6 nM | 6.96 nM | – | – | – | – | 40.1 | – |
| Oc1cccc2c1Oc1ccccc1C2=C1CC2CCC(C1)N2Cc1ccoc1 (single isomer, unassigned) [Cpd 58, 9-(8-Furan-3-ylmethyl-8-azabicyclo[3.2.1]oct-3-ylidene)-9H-xanthen-4-ol] | 0.1 nM | 0.45 nM | – | – | – | – | 2.6 | – |
| NC(=O)c1cccc2c1Oc1ccccc1C2=C1CC2CCC(C1)N2 [Cpd 3, 9-(8-Aza-bicyclo[3.2.1]oct-3-ylidene)-9H-xanthene-4-carboxylic acid amide] | 3.2 nM | 29.4 nM | 42 | – | 3960 | – | – | – |
| NC(=O)c1cccc2c1Oc1ccccc1C2=C1CC2CCC(C1)N2Cc1ccoc1 [Cpd 4, 9-(8-Furan-3-ylmethyl-8-azabicyclo[3.2.1]oct-3-ylidene)-9H-xanthene-4-carboxylic acid amide] | 2.3 nM | 2.5 nM | – | – | – | – | 9.4 | 4040 |
| CNC(=O)c1cccc2c1Oc1ccccc1C2=C1CC2CCC(C1)N2 [Cpd 10, 9-(8-Azabicyclo[3.2.1]oct-3-ylidene)-9H-xanthene-4-carboxylic acid methylamide] | – | 27 nM and 51 nM | 617 | – | > 10000 | – | – | – |
| O=C(Nc1ccccc1)c1cccc2c1Oc1ccccc1C2=C1CC2CCC(C1)N2 [Cpd 12, 9-(8-Azabicyclo[3.2.1]oct-3-ylidene)-9H-xanthene-4-carboxylic acid phenylamide] | 272 nM and 67.9 nM | 32 nM | 30.3 | 1.03 | 611 | 0.96 | – | – |
| O=C(NCc1ccccc1)c1cccc2c1Oc1ccccc1C2=C1CC2CCC(C1)N2 [Cpd 13, 9-(8-Azabicyclo[3.2.1]oct-3-ylidene)-9H-xanthene-4-carboxylic acid benzylamide] | – | 15 nM and 12.7 nM | 5.68 | 0.87 | 717 | 0.67 | – | – |
| O=C(NCCc1ccccc1)c1cccc2c1Oc1ccccc1C2=C1CC2CCC(C1)N2 [Cpd 14, 9-(8-Azabicyclo[3.2.1]oct-3-ylidene)-9H-xanthene-4-carboxylic acid phenethyl-amide] | – | 44 nM and 36.2 nM | 10.4 | 0.92 | 997 | 0.54 | – | – |
| Oc1cccc2c1Oc1ccccc1C2=C1CCNCC1 [Cpd 16, 9-Piperidin-4-ylidene-9H-xanthen-4-ol] | 15.1 nM | 776 nM | 964 | – | – | – | – | – |
| CN1C2CCC1CC(=C1c3ccccc3Oc3c(O)cccc31)C2 [Cpd 19, 9-(8-Methyl-8-azabicyclo[3.2.1]oct-3-ylidene)-9H-xanthen-4-ol] | 28.3 nM | 372 nM | 768 | – | > 10000 | – | – | – |
| Oc1cccc2c1Oc1ccccc1C2=C1CC2CCCC(C1)N2 [Cpd 20, 9-(9-Azabicyclo[3.3.1]non-3-ylidene)-9H-xanthen-4-ol] | 20.2 nM | 32.6 nM | 180 | – | 7080 | – | – | – |
| O=CNc1cccc2c1Oc1ccccc1C2=C1CC2CCC(C1)N2 [Cpd 44, N-[9-(8-Azabicyclo[3.2.1]oct-3-ylidene)-9H-xanthen-4-yl]-formamide] | 19.2 nM | 45.2 nM | 7.03 | – | – | – | – | – |
| NC(=O)c1cccc2c1Sc1ccccc1C2=C1CC2CCC(C1)N2 [Cpd 63, 9-(8-Azabicyclo[3.2.1]oct-3-ylidene)-9H-thioxanthene-4-carboxylic acid amide] | 0.71 nM | 3.31 nM | 2.7 | – | – | – | – | – |

Source: patent publication US20090275610A1, “TRICYCLIC OPIOID MODULATORS” (priority 2005, published 2009)
